Ends that are not written are not given here.
How the values were obtained:
αvβ6 headpiece = target: T1, αvβ6 headpiece (Homo sapiens, UniProt P06756+P18564, I287C/M430C); experiment: Competition binding with FITC-[…] by fluorescence anisotropy, αvβ6 headpiece; settings: FIG. 1C
T1 construct: The αv headpiece (residues 1-594) with M400C mutation was followed by a 3C protease site; β6 headpiece residues 1-474 with I270C or β3 headpiece residues 1-472 with Q267C were followed by the 3C site; 3C protease site (C, cleaved yes); ACID coiled-coil (C, cleaved yes); Strep-II tag (C, cleaved yes); His tag (C, cleaved yes); 3C site (C, cleaved yes); BASE coiled-coil (C, cleaved yes); made in house; host or cells: HEK293s Gnt I- cells
Experimental: (§1) Ligands bind to the integrin headpiece, which contains the α-subunit β-propeller domain and thigh domain, and the β-subunit βI, hybrid, PSI, and EGF1 domain. […] (SEQ ID NO: 68), peptide affinity for the αvβ6 and αvβ3 headpiece was measured with fluorescence anisotropy.
(§2) Binding affinities were calculated as described in Ref. 23. […] Competition binding assays used 200 nM αvβ6 or 4 μM αvβ3 headpiece, 5 nM of fluorescence probe, and competing peptide serially diluted in 3-fold decrement from 500 μM to 0.5 nM.

αvβ3 headpiece = target: T2, αvβ3 headpiece (Homo sapiens, UniProt P05106+P06756, M430C/Q293C); experiment: Competition binding with FITC-[…] by fluorescence anisotropy, αvβ3 headpiece; settings: FIG. 1D
T2 construct: The αv headpiece (residues 1-594) with M400C mutation was followed by a 3C protease site; β6 headpiece residues 1-474 with I270C or β3 headpiece residues 1-472 with Q267C were followed by the 3C site; 3C protease site (C, cleaved yes); ACID coiled-coil (C, cleaved yes); Strep-II tag (C, cleaved yes); His tag (C, cleaved yes); 3C site (C, cleaved yes); BASE coiled-coil (C, cleaved yes); made in house; host or cells: HEK293s Gnt I- cells
Experimental: as §1, §2

integrin αvβ6 headpiece = target: T3, integrin αvβ6 headpiece (Homo sapiens, UniProt P06756+P18564, I287C/M430C); experiment: Saturation binding of fluorescence probe to αvβ6 headpiece by fluorescence anisotropy; settings: buffer at indicated pH, FIG. 2C
T3 construct: The αv headpiece (residues 1-594) with M400C mutation was followed by a 3C protease site; β6 headpiece residues 1-474 with I270C or β3 headpiece residues 1-472 with Q267C were followed by the 3C site; 3C protease site (C, cleaved yes); ACID coiled-coil (C, cleaved yes); Strep-II tag (C, cleaved yes); His tag (C, cleaved yes); 3C site (C, cleaved yes); BASE coiled-coil (C, cleaved yes); made in house; host or cells: HEK293s Gnt I- cells
Experimental: A fluorescence probe for integrin αvβ6, the sequence of which is FITC-[…] (SEQ ID NO: 68), was synthesized. […] By competition binding assay, the affinities of Different Ligands were Measured.
Fluorescence anisotropy was in 150 mM NaCl, 1 mM Mg^2+/Ca^2+, 20 mM HEPES, pH 7.4 or buffer at indicated pH with 5 nM fluorescence probe (FITC-pro-TGF-β3 peptide, FITC-[…] (SEQ ID NO: 68)). Binding affinities were calculated as described in Ref. 23. In saturation binding assays, the anisotropy of the fluorescence probe was measured while αvβ6 headpiece (starting at 2.67 μM) or αvβ3 headpiece (starting at 75 μM) was serially diluted in 3-fold decrements. Competition binding assays used 200 nM αvβ6 or 4 μM αvβ3 headpiece, 5 nM of fluorescence probe, and competing peptide serially diluted in 3-fold decrement from 500 μM to 0.5 nM.

Fold lower affinity for αvβ6 than the pro-TGF-β1/β3 peptides (αvβ6 headpiece)	Fold lower affinity for αvβ3 than for αvβ6 (αvβ3 headpiece)	Sequence	Effect of pH on affinity of αvβ6 for the peptide (integrin αvβ6 headpiece)
1,000 fold	–	TSGDQKTIK [pro-TGF-β2 peptide]	–
–	1,000 fold	GRGDLGRLK [pro-TGF-β3 nonapeptide, GRGDLGRLK (SEQ ID NO: 75)]	sharp decrease in affinity between pH 7 and 6

From patent US10273283B2, “Modified integrin polypeptides, modified integrin polypeptide dimers, and uses thereof” (THE CHILDREN'S MEDICAL CENTER CORPORATION, priority 2014, dated 2019)
